Test results taken from patent publication US20130253039A1, “COLORECTAL CANCER TREATMENTS AND DIAGNOSTIC IMPROVEMENTS” (priority 2012, published 2013).
Like-named read-outs stand apart in the source and are kept apart here.

Experiments:
[1] = target: T1, IMPDH (Homo sapiens, UniProt P12268); assay: IMPDH activity in Caco2 cell lines after tiazofurin treatment; assay type: cell-based; details: 4 h
T1 construct: endogenous in cells; host or cells: Caco2 (wild-type and hNMNAT2-transfected)
Experimental: Panel A, Cells were Processed and NAD levels were determined in the cytoplasmic extracts as described in the Methods section, below. […] Triplicate flasks were set-up with each cell line and incubated with saline or tiazofurin (100-300 μM) for 4 h at 3TC. Cells were processed as described in the Methods section below. Basal IMPDH activity in saline treated control was 1.85 […] of XMP synthesized/mg protein/min; Panel D, NMNAT enzyme activity in wild-type and hNMNAT2 transfected Caco2 cell lines. The y-axis of the bar graph indicates the NMNAT activity in unit/mg of protein; Panel E, hNMNAT2 expression in cytoplasm, nucleus, and mitochondria. Cytoplasmic, nuclear, and mitochondrial proteins were isolated as detailed in the Methods section below and expression of hNMNAT2 protein was determined by Western blot analysis in wild-type and hNMNAT2 transfected caco2 cell lines; Panel F, silencing of hNMNAT2 expression in hNMNAT2 overexpressing cell line. hNMNAT2 expression in transfected Caco2 cell lines was silenced by shRNA-NMNAT2 and there expression was determined by Western blot analysis; Panel G, the wild-type, hNMNAT2 overexpressing, and hNMNAT2 overexpressing Caco2 cell lines were subjected to cell-kill by tiazofurin. ? […]
Colorectal cancer cells were extracted and IMPDH activity was assayed as described and activity is expressed as nmol/min/mg protein [8]. […]

[2] = test system: hNMNAT2-over-expressed HT29; assay: Antitumor activity in athymic mice with subcutaneous hNMNAT2-over-expressed HT29 tumors; assay type: in vivo
Experimental: (§1) In vivo studies were conducted studies to compare antitumor activity of tiazofurin in athymic mice implanted subcutaneously with wild-type and hNMNAT2-over-expressed HT29 cell lines. Groups of five female athymic mice 6-8 weeks old, weighing 16-18 grams, obtained from Harlan Sprague Dawley, Indianapolis, Ind., were injected with wild-type or hNMNAT2-over-expressed HT29 (2×10^6 cells/mice), and tumors were allowed to establish for 7 days. Mice were then treated intraperitoneally with saline or tiazofurin once-a-day for 10 days (QD10) and tumor volume and weights were monitored twice a week. […] There was a dose-dependent decrease in tumor volume following tiazofurin treatment in mice bearing wild-type HT29 (70% decrease in tumor volume at 200 mg/kg and 50% decrease in tumor volume at 50 mg/kg). […] These studies indicate that hNMNAT2-gene-targeted tiazofurin therapy for colorectal cancer is feasible. Further decreasing the dose of tiazofurin will be possible by targeting FR and/or CEA and encapsulating tiazofurin in folate-tethered nanoparticles. Further targeting would translate to additional lowering of tiazofurin induced side-effects.

[3] = test system: HCC2998; assay: Cell-kill assay, HCC2998; assay type: cell-based; details: Homo sapiens, HCC 2998; free tiazofurin, 72 h
Experimental: (§2) Human colorectal cancer cell lines HCT15, HCT116, HT29, HCC2998, and Caco2 were obtained from the National Cancer Institute, Bethesda, Md., USA, maintained in 5% CO2 at 3TC in minimum essential media containing 2.3 μM folic acid (MEM, Life Technologies, Inc., Grand Island, N.Y.) supplemented with 1% penicillin, streptomycin, amphotericin B (Invitrogen, Carlsbad, Calif.), and 10% fetal bovine serum (FBS) for all cell lines except Caco2, which required 20% FBS for optimal growth. Caco2 and HT29 cells were adapted to grow in a low-folate (LF) condition by step-wise reduction of the folate concentration in the medium and finally were stably adapted to grow in folate-free MEM supplemented with 20% and 10% FBS, respectively. The complete LF medium with 20% FBS for Caco2 cells contained 18 nM 5-methyltetrahydrofolate and the LF medium with 10% FBS for HT29 cells contained 9 nM 5-methyltetrahydrofolate. The cells were cultured in low 5-methyltetrahydrofolate conditioned medium for at least 20 generations before they were used in the experiments to promote full expression of folate receptors, and logarithmically growing cells were utilized for all studies.

[4] = test system: GTP pools; assay: GTP concentration in colorectal cancer cells after tiazofurin treatment (HPLC); assay type: cell-based, human; details: 4 h
Experimental: The y-axis of the bar graph indicate the GTP concentration in nmol per million cells while the x-axis gives the tiazofurin concentration used; Panels C and F, effect of TAD concentration following tiazofurin treatment. Triplicate flasks were set-up with each cell line, treated with tiazofurin Caco2 (300 μM), and HT29 (150 μM) for 4 h and processed as detailed in Methods section below. The y-axis indicates the TAD concentration in nmol per million cells. ? Wild-type (WT), ? hNMNAT2 transfected cell line. • *Denotes statistical significance (P<0.05) NS Denotes not significant
(§3) For the determination of GTP and TAD, colorectal cancer cells were treated with concentration of tiazofurin (specified in legends to figures) or with saline for 4 h and cell extracts were prepared as detailed earlier. An aliquot of neutralized extract was injected into Phenomenex Gemini 250×4.6 mm, 5μ C18 110A column (Torrance, Calif.) maintained at 19° C., preequilibrated with buffer A (0.1 M potassium phosphate, pH 6.0) and then subjected to a stepwise gradient of buffer A with 20% acetonitrile, pH 6.0 over 30 min and analyzed on Shimadzu High Performance Liquid Chromatography (Canby, Oreg.). Under these conditions GTP eluted at 10 min separated from other nucleotides.

[5] = test system: hNMNAT2 transfected Caco2 cell line; assay: Cell-kill assay, hNMNAT2 transfected Caco2; details: Homo sapiens, Caco-2, 72 h, read-out: Cytotoxicity EC50, hNMNAT2
Experimental: (§4) Colorectal cancer cells were transfected with pTracer hNMNAT2 and the control plasmid pTracerEFV5/HisA using the lipofectamine reagent (Invitrogen, Carlsbad, Calif.). Zeocin resistant green fluorescence protein (GFP) expressing clones were further analyzed by Fluorescence-activated cell sorting (Becton Dickinson Immunocytometry Systems, San Jose, Calif.).
(§5) Colorectal cancer cells (1500 cells/0.1 ml) were dispensed into 96-well tissue culture plates and 24 h later treated with serial dilutions of free tiazofurin or nanoparticles containing tiazofurin (for nanoparticle treatment, cells were incubated for 2 h with gentle shaking, aspirated and fresh media was added) and further incubated for 72 h at 3TC. After incubation, 20 μl of 3-(4,5-dimethylthiazol-2-yl)-5-(3-carboxymethoxyphenyl)-2-(4-sulfophenyl)-2H-tetrazolium reagent was added to each well, mixed, plates were further incubated for 2 h and color developed was read at 490 nm using a microplate spectrophotometer (Spectra MAX250, Molecular Devices, Sunnnyvale, Calif.) and cell-kill data were analyzed by Graphpad Prism 4 software (GraphPad Software, San Diego, Calif.).

[6] = test system: HCT116; assay: Cell-kill assay, HCT116; assay type: cell-based; details: Homo sapiens, HCT-116; free tiazofurin, 72 h
Experimental: as §2

[7] = test system: Caco2; assay: Cell-kill assay, wild-type Caco2; assay type: cell-based, human
Experimental: as §2

[8] = test system: wild-type HT29; assay: Antitumor activity in athymic mice with subcutaneous wild-type HT29 tumors; assay type: in vivo
Experimental: as §1

[9] = test system: HT29; assay: Cell-kill assay, wild-type HT29; assay type: cell-based, human; details: for EC50: wild-type HT29, free tiazofurin, 72 h, read-out: Cytotoxicity EC50, Wild-type
Experimental: as §2

[10] = test system: hNMNAT-2-shRNA knockdown cells (Caco2); assay: Cell-kill assay, hNMNAT-2-shRNA knockdown Caco2 cells; assay type: cell-based; details: Homo sapiens, Caco-2; hNMNAT2 overexpressing Caco2 silenced with hNMNAT2-shRNA, puromycin selected
Description: Colorectal cancer Caco2 cells overexpressing hNMNAT2 were transfected with control shRNA plasmid and NMNAT2 small hairpin shRNA plasmid (sc-62693-SH: NMNAT2 shRNA Plasmid (h) is a pool of 3 different shRNA plasmids with a hairpin sequence: […] (SEQ ID NO: 3) and sc-62693-SHA: 5′-GUAGAAAGUGAGACUCAAUtt-3′ (SEQ ID NO: 4) and 5′-AUUGAGUCUCACUUUCUACtt-3′ (SEQ ID NO: 5); sc-62693-SHB: 5′-CCUUAGGAAUAGCAUUGUAtt-3′ (SEQ ID NO: 6) and 5′-UACAAUGCUAUUCCUAAGGtt-3′ (SEQ ID NO: 7); sc-62693-SHC: 5′-GCUCUUUCCCUCAACCUUAtt-3′ (SEQ ID NO: 8) and 5′-UAAGGUUGAGGGAAAGAGCtt-3′ (SEQ ID NO: 9). Transfection was conducted for 8 h as per manufacturer's instructions (Santa Cruz Biotechnology, Inc., Santa Cruz, Calif.). Puromycin resistant clones were selected and knockdown of hNMNAT2 was confirmed by Western blot analyses.

[11] = dose of 1,100 mg/m^2, patients; cited from earlier work
[12] = test system: human colorectal carcinoma; details: mouse, in vivo; cited from earlier work
[13] = test system: TAD concentration; assay: TAD concentration in colorectal cancer cells after tiazofurin treatment (HPLC); assay type: cell-based, human; details: 4 h
Experimental: Panels A, B, D, and E, triplicate flasks were set-up with each cell line, treated with tiazofurin (0, 150 and 300 μM) for Caco2 and (0, 50 and 150 μM) for HT29 for 4 h and the cells were processed as detailed in Methods section below. The y-axis of the bar graph indicate the GTP concentration in nmol per million cells while the x-axis gives the tiazofurin concentration used; Panels C and F, effect of TAD concentration following tiazofurin treatment. Triplicate flasks were set-up with each cell line, treated with tiazofurin Caco2 (300 μM), and HT29 (150 μM) for 4 h and processed as detailed in Methods section below. The y-axis indicates the TAD concentration in nmol per million cells. ? […]
as §3, with “Under these conditions GTP eluted at 10 min separated from other nucleotides.” left out

[14] = test system: HCT15; assay: Cell-kill assay (dye-based cell proliferation), HCT15; details: Homo sapiens, HCT-15; free tiazofurin, 72 h
Experimental: as §2

[15] = test system: colorectal cancer; details: 21 patients, bolus once a day for 5 days; cited from earlier work
[16] = test system: hNMNAT2 transfected HT29 cell line; assay: Cell-kill assay, hNMNAT2 transfected HT29; details: Homo sapiens, HT-29, 72 h, read-out: Cytotoxicity EC50, hNMNAT2
Experimental: as §4, §5

[17] = 50 mg/kg intraperitoneally once-a-day for 10 days
[18] = 200 mg/kg intraperitoneally once-a-day for 10 days

T1 sequence (P12268 2-514): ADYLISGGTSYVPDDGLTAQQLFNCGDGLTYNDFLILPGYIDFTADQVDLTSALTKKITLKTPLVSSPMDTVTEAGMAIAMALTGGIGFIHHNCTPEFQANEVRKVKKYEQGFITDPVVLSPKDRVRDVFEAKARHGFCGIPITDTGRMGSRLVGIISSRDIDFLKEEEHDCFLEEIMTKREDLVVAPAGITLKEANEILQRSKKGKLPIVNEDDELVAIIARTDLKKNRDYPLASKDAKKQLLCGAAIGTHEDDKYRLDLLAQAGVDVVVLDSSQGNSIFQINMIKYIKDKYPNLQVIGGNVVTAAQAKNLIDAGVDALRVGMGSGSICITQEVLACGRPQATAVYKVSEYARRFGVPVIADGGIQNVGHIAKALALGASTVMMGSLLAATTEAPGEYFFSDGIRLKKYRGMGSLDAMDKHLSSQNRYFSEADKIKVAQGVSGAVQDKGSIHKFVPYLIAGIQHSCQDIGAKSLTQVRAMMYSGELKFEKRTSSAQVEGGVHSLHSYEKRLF

SMILES: NC(=O)c1csc([C@@H]2O[C@H](CO)[C@@H](O)[C@H]2O)n1 [tiazofurin, 2-R-D-ribofuranosylthiazole-4-carboxamide]
- EC50 ([1]; hNMNAT2 transfected Caco2, tiazofurin 100-300 μM, read-out: EC50 of decrease in IMPDH activity): 250 µM
- Effect on IMPDH activity ([1]; wild-type Caco2, sub-lethal tiazofurin 100-300 μM): no reduction in IMPDH activity
- Effect on tumor [2, 17]: complete disappearance of tumor
- Effect on tumor [2, 18]: complete disappearance of tumor
- EC50 [3]: 274 µM
- Reduction in GTP levels ([4]; hNMNAT2-transfected Caco2, 150 μM tiazofurin): 40%
- Reduction in GTP levels ([4]; hNMNAT2-transfected Caco2, 300 μM tiazofurin): 60%
- Reduction in GTP levels ([4]; hNMNAT2-transfected HT29, 25 μM tiazofurin): 21%
- Reduction in GTP levels ([4]; hNMNAT2-transfected HT29, 100 μM tiazofurin): 47%
- Reduction in GTP pools ([4]; wild-type Caco-2, 150 μM tiazofurin): 29%
- Reduction in GTP pools ([4]; wild-type Caco-2, 300 μM tiazofurin): 45%
- GTP reduction ([4]; wild-type HT29, 25 μM tiazofurin): did not result in GTP reduction
- GTP reduction ([4]; wild-type HT29, 100 μM tiazofurin): 22%
- EC50 [5]: 225 µM
- EC50 [6]: 72.6 µM
- EC50 ([7]; Homo sapiens, Caco-2, 72 h, wild-type Caco2, free tiazofurin, 72 h, read-out: Cytotoxicity EC50, Wild-type): 450 µM
- Influence of silencing hNMNAT3 on cell-kill by tiazofurin ([7]; wild-type and hNMNAT2 overexpressing Caco2, siRNA-hNMNAT3 24 h): no change in the dose of tiazofurin required to provide 50% cell-kill
- Influence of silencing hNMNAT1 on cell-kill by tiazofurin ([7]; wild-type or hNMNAT2 overexpressing Caco2, siRNA-hNMNAT1 day 3): did not have any influence on cell-kill by tiazofurin
- Decrease in tumor volume [8, 17]: 50%
- Decrease in tumor volume [8, 18]: 70%
- EC50 ([9]; Homo sapiens, HT-29, 72 h): 125 µM
- EC50 [9]: 130 ± 8 µM
- Influence of silencing hNMNAT3 on cell-kill by tiazofurin ([9]; wild-type and hNMNAT2 overexpressing HT29, siRNA-hNMNAT3 24 h): did not influence cell-kill by tiazofurin
- Influence of silencing hNMNAT1 on cell-kill by tiazofurin ([9]; wild-type or hNMNAT2-overexpressing HT29, siRNA-hNMNAT1 day 3): had no effect on tiazofurin cell-kill
- EC50 [10]: 380 µM
- Peak plasma concentration [11]: 240 µM
- Antitumor activity [12]: significant antitumor activity
- Fold higher concentration of TAD in hNMNAT2 overexpressing vs wild-type cell line ([13]; Caco2, tiazofurin 300 μM): 2 fold
- Fold higher levels of TAD in hNMNAT2-overexpressing vs wild-type cell line ([13]; HT29, tiazofurin 150 μM): 2 fold
- EC50 [14]: 63.9 µM
- Antitumor activity [15]: no significant antitumor activity
- EC50 [16]: 80 ± 3 µM
